Patent US11395489B2, “Microbiocidal picolinamide derivatives” (Syngenta Participations AG, priority 2017, dated 2022)

How the values were obtained:
[1] = system: Glomerella lacenarium (Colletotrichum lacenarium); assay: Glomerella lacenarium (Colletotrichum lacenarium) / liquid culture (Anthracnose); type: cell-based; conditions: 200 ppm in the formulation, inhibition of growth measured photometrically 3-4 days after application, read-out: disease control
Protocol: (§1) Glomerella lacenarium (Colletotrichum lacenarium)/Liquid Culture (Anthracnose) Conidia of the fungus from cryogenic storage are directly mixed into nutrient broth (PDB potato dextrose broth). After placing a (DMSO) solution of test compound into a microtiter plate (96-well format), the nutrient broth containing the fungal spores is added. The test plates are incubated at 24° C. and the inhibition of growth is measured photometrically 3-4 days after application.

[2] = system: Puccinia recondita f. Sp. Tritici; assay: Puccinia recondita f. sp. tritici / wheat / leaf disc preventative (Brown Rust); type: in vivo; conditions: foliar, 168 h, 200 ppm in the formulation, compared to untreated, 7-9 days after application, read-out: disease control
[3] = system: Mycosphaerella arachidis (Cercospora arachidicola); assay: Mycosphaerella arachidis (Cercospora arachidicola) / liquid culture (Early Leaf Spot); type: cell-based; conditions: 96 h, 200 ppm in the formulation, inhibition of growth determined photometrically 4-5 days after application, read-out: disease control
Protocol: as §1, with “Mycosphaerella arachidis (Cercospora arachidicola)/Liquid” for “Glomerella lacenarium (Colletotrichum lacenarium)/Liquid”, “(Early Leaf Spot)” for “(Anthracnose)”, “determined” for “measured”, “4-5” for “3-4”

[4] = system: Botryotinia fuckeliana (Botrytis cinerea); assay: Botryotinia fuckeliana (Botrytis cinerea) / liquid culture (Gray Mould); type: cell-based; conditions: 72 h, 200 ppm in the formulation, inhibition of growth determined photometrically 3-4 days after application, read-out: disease control
Protocol: as §1, with “Botryotinia fuckeliana (Botrytis cinerea)/Liquid” for “Glomerella lacenarium (Colletotrichum lacenarium)/Liquid”, “(Gray Mould)” for “(Anthracnose)”, “(Vogels” for “(PDB potato dextrose”, “determined” for “measured”

[5] = system: Monocraphella nivalis (Microdochium nivale); assay: Monocraphella nivalis (Microdochium nivale) / liquid culture (Foot Rot Cereals); type: cell-based; conditions: 96 h, 200 ppm in the formulation, inhibition of growth determined photometrically 4-5 days after application, read-out: disease control
Protocol: as §1, with “Monocraphella nivalis (Microdochium nivale)/Liquid” for “Glomerella lacenarium (Colletotrichum lacenarium)/Liquid”, “(Foot Rot Cereals)” for “(Anthracnose)”, “determined” for “measured”, “4-5” for “3-4”

[6] = system: Mycosphaerella Raminicola (Septoria tritici); assay: Mycosphaerella Raminicola (Septoria tritici) / liquid culture (Septoria Blotch); type: cell-based; conditions: 200 ppm in the formulation, inhibition of growth determined photometrically 4 to 5 days after application, read-out: disease control
Protocol: as §1, with “Mycosphaerella Raminicola (Septoria tritici)/Liquid” for “Glomerella lacenarium (Colletotrichum lacenarium)/Liquid”, “(Septoria Blotch)” for “(Anthracnose)”, “determined” for “measured”, “4 to 5” for “3-4”

[7] = system: Phaeosphaeria Nodorum (Septoria nodorum); assay: Phaeosphaeria nodorum (Septoria nodorum) / wheat / leaf disc preventative (Glume Blotch); type: in vivo; conditions: Parastagonospora nodorum, foliar, 200 ppm in the formulation, compared to untreated, 5-7 days after application, read-out: disease control
Protocol: Phaeosphaeria Nodorum (Septoria nodorum)/Wheat/Leaf Disc Preventative (Glume Blotch) Wheat leaf segments cv. Kanzler are placed on agar in a multiwell plate (24-well format) and sprayed with the formulated test compound diluted in water. The leaf disks are inoculated with a spore suspension of the fungus 2 days after application. The inoculated test leaf disks are incubated at 20° C. and 75% rh under a light regime of 12 h light/12 h darkness in a climate cabinet and the activity of a compound is assessed as percent disease control compared to untreated when an appropriate level of disease damage appears in untreated check leaf disks (5-7 days after application).

[8] = system: Magnaporthe risea (Pyricularia Oryzae); assay: whole plant or invertebrate; type: in vivo; conditions: foliar, read-out: disease control

COc1ccnc(C(=O)N[C@@H](C)C(=O)OC(C)C(C)(C)c2ccc(F)cc2)c1O (stereo partly drawn) [I.j.001, [2-(4-fluorophenyl)-1,2-dimethyl-propyl] (2S)-2-[(3-hydroxy-4-methoxy-pyridine-2-carbonyl)-amino]propanoate]
≥ 80%: inhibition of growth at 200 ppm [1] | pest or weed control at 200 ppm [2] | inhibition of growth at 200 ppm [3] | inhibition of growth at 200 ppm [4] | inhibition of growth at 200 ppm [5] | inhibition of growth at 200 ppm [6]

COc1ccnc(C(=O)N[C@@H](C)C(=O)OC(C)C2(c3ccc(Cl)cc3)CC2)c1O (stereo partly drawn) [I.k.006, 1-[1-(4-chlorophenyl)-cyclopropyl]ethyl (2S)-2-[(3-hydroxy-4-methoxy-pyridine-2-carbonyl)amino]propanoate]
≥ 80%: pest or weed control at 200 ppm [2] | inhibition of growth at 200 ppm [3] | inhibition of growth at 200 ppm [4] | inhibition of growth at 200 ppm [5] | pest or weed control at 200 ppm [7] | inhibition of growth at 200 ppm [6]

CCOc1ccc(C2(C(C)OC(=O)[C@H](C)NC(=O)c3nccc(OC)c3O)CC2(F)F)cc1 (stereo partly drawn) [I.u.007, 1-[1-(4-ethoxyphenyl)-2,2-difluorocyclopropyl]-ethyl (2S)-2-[(3-hydroxy-4-methoxy-pyridine-2-carbonyl)amino]propanoate]
≥ 80%: pest or weed control at 200 ppm [8] | inhibition of growth at 200 ppm [1] | pest or weed control at 200 ppm [2] | inhibition of growth at 200 ppm [4] | inhibition of growth at 200 ppm [5] | inhibition of growth at 200 ppm [6]

COc1ccnc(C(=O)N[C@@H](C)C(=O)OC(C)C2(c3ccccc3)CC2)c1O (stereo partly drawn) [I.a.006, 1-(1-phenylcyclopropyl)ethyl (2S)-2-[(3-hydroxy-4-methoxy-pyridine-2-carbonyl)amino]propanoate]
≥ 80%: pest or weed control at 200 ppm [8] | pest or weed control at 200 ppm [2] | inhibition of growth at 200 ppm [3] | inhibition of growth at 200 ppm [4] | inhibition of growth at 200 ppm [5] | inhibition of growth at 200 ppm [6]

COc1ccnc(C(=O)N[C@@H](C)C(=O)OC(C)C2(c3cccc4ccccc34)CC2c2ccc(F)cc2)c1O (stereo partly drawn) [I.v.011, 1-[2-(4-fluorophenyl)-1-(1-naphthyl)cyclo-propyl]ethyl (2S)-2-[(3-hydroxy-4-methoxy-pyridine-2-carbonyl)amino]-propanoate]
≥ 80%: inhibition of growth at 200 ppm [1] | pest or weed control at 200 ppm [2] | inhibition of growth at 200 ppm [3] | inhibition of growth at 200 ppm [6]

COc1ccnc(C(=O)N[C@@H](C)C(=O)OC(C)C2(c3ccc(Br)cc3)CCC2)c1O (stereo partly drawn) [I.m.012, 1-[1-(4-bromophenyl)-cyclobutyl]ethyl (2S)-2-[(3-hydroxy-4-methoxy-pyridine-2-carbonyl)amino]propanoate]
≥ 80%: pest or weed control at 200 ppm [8] | inhibition of growth at 200 ppm [1] | pest or weed control at 200 ppm [2] | inhibition of growth at 200 ppm [3] | inhibition of growth at 200 ppm [4] | inhibition of growth at 200 ppm [5] | inhibition of growth at 200 ppm [6]

COc1ccnc(C(=O)N[C@@H](C)C(=O)OC(C)C2(c3ccc(OC(F)(F)F)cc3)CC2)c1O (stereo partly drawn) [I.q.006, 1-[1-[4-(trifluoro-methoxy)phenyl]cyclo-propyl]ethyl (2S)-2-[(3-hydroxy-4-methoxy-pyridine-2-carbonyl)amino]propanoate]
≥ 80%: pest or weed control at 200 ppm [8] | inhibition of growth at 200 ppm [1] | pest or weed control at 200 ppm [2] | inhibition of growth at 200 ppm [3] | inhibition of growth at 200 ppm [4] | inhibition of growth at 200 ppm [5] | inhibition of growth at 200 ppm [6]

COc1ccnc(C(=O)N[C@@H](C)C(=O)OC(C)C2(c3ccc(Cl)cc3)CCCC2)c1O (stereo partly drawn) [I.k.014, 1-[1-(4-chlorophenyl)-cyclopentyl]ethyl (2S)-2-[(3-hydroxy-4-methoxy-pyridine-2-carbonyl)amino]propanoate]
≥ 80%: pest or weed control at 200 ppm [8] | inhibition of growth at 200 ppm [1] | pest or weed control at 200 ppm [2] | inhibition of growth at 200 ppm [3] | inhibition of growth at 200 ppm [4] | inhibition of growth at 200 ppm [5] | inhibition of growth at 200 ppm [6]

COc1ccnc(C(=O)N[C@@H](C)C(=O)OC(C)C2(c3ccc(F)cc3)CC2c2ccc(F)cc2)c1O (stereo partly drawn) [I.j.011, 1-[1,2-bis(4-fluoro-phenyl)cyclopropyl]-ethyl (2S)-2-[(3-hydroxy-4-methoxy-pyridine-2-carbonyl)-amino]propanoate]
≥ 80%: inhibition of growth at 200 ppm [1] | pest or weed control at 200 ppm [2] | inhibition of growth at 200 ppm [3] | inhibition of growth at 200 ppm [5] | inhibition of growth at 200 ppm [6]

COc1ccnc(C(=O)N[C@@H](C)C(=O)OC(C)C2(c3cccc4ccccc34)CC2)c1O (stereo partly drawn) [I.v.006, 1-[1-(1-naphthyl)cyclo-propyl]ethyl (2S)-2-[(3-hydroxy-4-methoxy-pyridine-2-carbonyl)-amino]propanoate]
≥ 80%: inhibition of growth at 200 ppm [1] | pest or weed control at 200 ppm [2] | inhibition of growth at 200 ppm [3] | inhibition of growth at 200 ppm [5] | pest or weed control at 200 ppm [7] | inhibition of growth at 200 ppm [6]

COc1ccnc(C(=O)N[C@@H](C)C(=O)OC(C)C2(c3ccc(Cl)c(Cl)c3)CC2)c1O (stereo partly drawn) [I.t.006, 1-[1-(3,4-dichloro-phenyl)cyclopropyl]-ethyl (2S)-2-[(3-hydroxy-4-methoxy-pyridine-2-carbonyl)-amino]propanoate]
≥ 80%: pest or weed control at 200 ppm [8] | inhibition of growth at 200 ppm [1] | pest or weed control at 200 ppm [2] | inhibition of growth at 200 ppm [3] | inhibition of growth at 200 ppm [4] | inhibition of growth at 200 ppm [5] | inhibition of growth at 200 ppm [6]

COc1ccnc(C(=O)N[C@@H](C)C(=O)OC(C)C(C)(C)c2ccccc2)c1O (stereo partly drawn) [I.a.001, (1,2-dimethyl-2-phenyl-propyl) (2S)-2-[(3-hydroxy-4-methoxy-pyridine-2-carbonyl)amino]propanoate]
≥ 80%: pest or weed control at 200 ppm [2] | inhibition of growth at 200 ppm [3] | inhibition of growth at 200 ppm [4] | inhibition of growth at 200 ppm [5] | pest or weed control at 200 ppm [7] | inhibition of growth at 200 ppm [6]

COc1ccnc(C(=O)N[C@@H](C)C(=O)OC(C)C2(c3ccc(F)cc3)CC2c2ccccc2)c1O (stereo partly drawn) [I.j.010, 1-[1-(4-fluorophenyl)-2-phenyl-cyclopropyl]-ethyl (2S)-2-[(3-hydroxy-4-methoxy-pyridine-2-carbonyl)-amino]propanoate]
≥ 80%: inhibition of growth at 200 ppm [1] | pest or weed control at 200 ppm [2] | inhibition of growth at 200 ppm [3] | inhibition of growth at 200 ppm [6]

COc1ccnc(C(=O)N[C@@H](C)C(=O)OC(C)C2(c3cccc(Br)c3)CC2)c1O (stereo partly drawn) [I.d.006, 1-[1-(3-bromophenyl)-cyclopropyl]ethyl (2S)-2-[(3-hydroxy-4-methoxy-pyridine-2-carbonyl)amino]propanoate]
≥ 80%: inhibition of growth at 200 ppm [1] | pest or weed control at 200 ppm [2] | inhibition of growth at 200 ppm [3] | inhibition of growth at 200 ppm [4] | inhibition of growth at 200 ppm [5] | inhibition of growth at 200 ppm [6]

COc1ccnc(C(=O)N[C@@H](C)C(=O)OC(C)C2(c3cccc4ccccc34)CC2c2ccccc2)c1O (stereo partly drawn) [I.v.010, 1-[1-(1-naphthyl)-2-phenyl-cyclopropyl]-ethyl (2S)-2-[(3-hydroxy-4-methoxy-pyridine-2-carbonyl)-amino]propanoate]
≥ 80%: inhibition of growth at 200 ppm [1] | pest or weed control at 200 ppm [2] | inhibition of growth at 200 ppm [3] | inhibition of growth at 200 ppm [6]
